This note sets out measurements from patent EP0034481A1, “2-Methyl-5-thiazole-methylamine and carboxamide derivatives” (Grigg, Ronald Ernest, priority 1980, dated 1981).

Series [1] is described as follows: Solubility in solvents (qualitative). In kind it is physicochemical.
In a further series the test system is Diazepam cell receptor. Description: Central nervous system activity: adhesion to specific cell receptor surfaces (diazepam cell receptor). It is filed as binding. Here is the method:
Various compounds of this invention have been tested for their biological activity. Peripheral activity was determined by contraction of the guinea pig ileum/frog rectus while central nervous system activity was determined by adhesion to specific cell receptor surfaces.

The next series is described as follows: LD50 (acute toxicity). Conditions: in vivo.
The next series concerns guinea pig ileum. Description: Peripheral activity: contraction of the guinea pig ileum, relative to nicotine. In kind it is cell-based. The protocol:
Peripheral activity was determined by contraction of the guinea pig ileum/frog rectus while central nervous system activity was determined by adhesion to specific cell receptor surfaces.

A word on the LD50: it is the dose expected to kill half of the subjects tested. Low readings indicate greater toxicity, high ones lower toxicity.

Turning to `c1ccc(-c2ncc(CN3CCCCC3)s2)cc1` [Example 24, 2-phenyl-(5-piperidinomethyl)thiazole], in series [1], the “soluble in dilute hydrochloric acid” value was “soluble” and the soluble in ethanol entry is given as “soluble”.

For `CCN(CC)C(=O)c1cnc(C)s1` [Example 6, N,N-diethyl 2-methyl-5-thiazolecarboxamide], the “Diazepam cell receptor adhesion” value in the series on Diazepam cell receptor was found to be 3.2 mM. In series [1], the soluble in ethanol entry is on record as “soluble” and the soluble in water entry is “soluble”.

Take `Cc1ncc(CN2CCCC2)s1` [Example 18, 2-methyl-5-(pyrrolidinomethyl)thiazole]: in “LD50 (acute toxicity)”, the LD50 is 7 to 8 mg/kg. For the same compound, the “Diazepam cell receptor adhesion” value with Diazepam cell receptor was determined as 4.4 mM. In addition, in series [1], the soluble in ethanol result is reported as “soluble” and the soluble in water entry was “soluble”.

As to `Cc1ncc(C(=O)N2CCN(C(=O)c3cnc(C)s3)CC2)s1` [Example 5, N,N'-bis(2-methyl-5-thiazolecarbonyl)piperazine], the soluble in chloroform entry in series [1] (chloroform) is “soluble”. In series [1] (polyethylene glycol), the “soluble in polyethylene glycol” value is “soluble”.

Take `Cc1ncc(C(=O)N2CCCCC2)s1` [Example 2, 2-methyl-5-(piperidincrcarbonyl)thiazole]: the “Diazepam cell receptor adhesion” value in the series on Diazepam cell receptor is recorded as 0.49 mM. In series [1], the soluble in ethanol result is listed as “soluble” and the soluble in water entry is “soluble”.

For `Cc1nnc(C(=O)N2CCCCC2)o1` [Example 11, 2-methyl-5-(piperidinocarbonyl)oxadiazole], in series [1], the soluble in water entry was “soluble”.

With `Cc1ncc(CN2CCCCC2)s1` [Example 19, 2-methyl-S-(piperidinomethyl)thiazole], the LD50 in “LD50 (acute toxicity)” lay in the range of 7 to 8 mg/kg. In the series on Diazepam cell receptor, the “Diazepam cell receptor adhesion” value was found to be 1.0 mM. In series [1], the soluble in ethanol result is “soluble” and the soluble in water result was “soluble”.

Turning to `Cc1ncc(C(=O)N2CCCC2)s1` [Example 1, 2-Methyl-5-(pyrrolidinocarbonyl)thiazole], the “Diazepam cell receptor adhesion” value in the series with Diazepam cell receptor turned out to be 0.55 mM. Further, in series [1], the soluble in ethanol result is recorded as “soluble” and the soluble in water result is listed as “soluble”.

Take `Cc1ncc(C(=O)N2CCOCC2)s1` [Example 3, 2-methyl-S-(morpholinocarbonyl)thiazole]: in the series with Diazepam cell receptor, the “Diazepam cell receptor adhesion” value came out at 1.0 mM. Further, in series [1], the “soluble in dilute hydrochloric acid” value is listed as “soluble”, the soluble in ethanol result is “soluble” and the soluble in water result is recorded as “soluble”.

With `Cc1ncc(C(=O)NC23CC4CC(CC(C4)C2)C3)s1` [Example 7, N-adamantyl 2-methyl-5-thiazolecarboxamide], the “Guinea Pig ileum test (% wrt nicotine)” value with guinea pig ileum came to 0 % wrt nicotine. Also, in series [1], the “soluble in dilute hydrochloric acid” value is reported as “soluble”, the soluble in ethanol entry was “soluble” and the soluble in water result was “soluble”.

On to `Cc1nnc(C(=O)N2CCOCC2)o1` [Example 13, 5-methyl-2-(morpholinocarbonyl)oxadiazole], for which, in series [1], the soluble in water entry is “soluble”.

For `Cc1nnc(C(=O)N2CCCC2)o1` [Example 12, 5-methyl-2-(pyrrolidinocarbonyl)oxadiazole], the soluble in water entry in series [1] was “soluble”.

`CCN(CC)Cc1cnc(C)s1` [Example 21, 2-methyl-5-(diethylaminomethyl)thiazole] displayed an LD50 in the series “LD50 (acute toxicity)” of 80 to 100 mg/kg. Further, the “Diazepam cell receptor adhesion” value in the series with Diazepam cell receptor amounted to 5.5 mM. For the same compound, in series [1], the soluble in ethanol result is given as “soluble” and the soluble in water entry is recorded as “soluble”.

Take `Cc1ncc(CN2CCOCC2)s1` [Example 20, 2-methyl-5-(morpholinomethyl)thiazole]: the “Diazepam cell receptor adhesion” value with Diazepam cell receptor is listed as 11 mM. Besides, in series [1], the “soluble in dilute hydrochloric acid” value is listed as “soluble”, the soluble in ethanol entry was “soluble” and the soluble in water entry is listed as “soluble”.

On to `c1ccc(-c2ncc(CN3CCCC3)s2)cc1` [Example 17, 2-phenyl-5-(pyrroli-dinomethyl)thiazole], for which, in series [1], the “soluble in dilute hydrochloric acid” value was “soluble” and the soluble in ethanol result is “soluble”.
